pIC50: −log10 of the molar value. Where two headings read alike, the source gives them in different places.
Experiments:
E. coli DNA gyrase = biological target: T1, E. coli DNA gyrase (Escherichia coli, UniProt P0AES6); assay: Test for evaluating the activity of inhibiting E. coli DNA gyrase enzyme (Method 2, supercoiling, recombinant gyrA/gyrB complex); format: biochemical
T1 construct: made in house; host or cells: E. coli BL21 (DE3)
Description: The enzymatic activity of E. coli DNA gyrase was measured by a method comprising reacting DNA gyrase and its substrate, relaxed pBR322 (Inspiralis), in the presence of ATP and detecting the post-reaction supercoiled pBR322/relaxed pBR322 ratio with H19.
Specifically, to 1 ng/μL of relaxed pBR322, E. coli DNA gyrase enzyme (the gyrA or gyrB gene was incorporated into the pET15b plasmid and after expressing them in E. coli BL21 (DE3), purification was performed using a Ni-NTA column to form a complex at room temperature) was added at a final concentration of 0.135 nmol/mL and the mixture was incubated for 60 minutes at room temperature. This reaction was carried out in 20 mmol/L tris-HCl buffered solution (pH 8.0) comprising 0.5 mmol/L ATP, 0.005% bridge 35, 35 mmol/L ammonium acetate, 8 mmol/L magnesium chloride, 4.6% glycerol, and 1 mmol/L dithiothreitol. To the reaction mixture, H19 was added to bring the reaction to an end; thereafter, the supercoiled pBR322/relaxed pBR322 ratio was detected at excitation wavelength/emission wavelength=485 nm/535 nm. An inhibition curve was obtained by allowing the analyte compound to be present at varying concentrations during the reaction described above.

E. Coli ATCC 25922 = assay: Test for evaluating antibacterial activity (E. coli), broth microdilution MIC; format: cell-based; settings: Escherichia coli, ATCC25922; 35° C., 18 hours, cation-adjusted Mueller-Hinton medium
Description: Minimum inhibitory concentration (MIC) was measured using the broth microdilution method described below in accordance with a modification of the standard method specified by CLSI (Clinical & Laboratory Standards Institute).
Bacterial cells under test were cultured overnight on a heart infusion agar medium, scraped off and suspended at a concentration equivalent to McFarland 0.5 turbidity; the suspension thus obtained was diluted 10 folds to give a liquid inoculum. The inoculum (0.005 mL) was inoculated on a cation-adjusted Mueller-Hinton medium containing the analyte compound and cultured at 35° C. for 18 hours. A minimum drug concentration at which no bacterial growth was macroscopically visible was designated MIC.

[1] = Method 2, read-out: E. Coli Gyrase supercoiling IC50

| SMILES | pIC50 (E. coli DNA gyrase; [1]) | MIC (E. Coli ATCC 25922) [µg/mL] | pIC50 (E. coli DNA gyrase) | inhibition at 10 µM (E. coli DNA gyrase; Method 2, at 10000 nM) [%] |
| --- | --- | --- | --- | --- |
| CNc1cccc2cc(C(=O)Nc3ccc(CC(=O)O)cc3)c(=O)[nH]c12 [Example 166, (4-{[8-(methylamino)-2-oxo-1,2-dihydroquinoline-3-carbonyl]amino}phenyl)acetic acid] | 7.74 | > 16 | – | – |
| CNc1cc(F)cc2cc(C(=O)Nc3ccc(C(=O)O)cc3N(C)C3CCCCC3)c(=O)[nH]c12 [Example 114, 3-[Cyclohexyl(methyl)amino]-4-[[6-fluoro-8-(methylamino)-2-oxo-1,2-dihydroquinoline-3-carbonyl]amino]benzoic Acid] | 6.47 | > 32 | – | – |
| CCCCCN(CCCCC)Cc1cc(C(=O)O)ccc1NC(=O)c1cc2cncc(NC)c2[nH]c1=O [Example 112, 3-[(dipentylamino)methyl]-4-{[8-(methylamino)-2-oxo-1,2-dihydro-1,6-naphthyridine-3-carbonyl]amino}benzoic acid] | 8.38 | > 64 | – | – |
| CNCCNc1c(C(=O)Nc2ccc(C(=O)O)cc2)c(=O)[nH]c2c(NC)cc(F)cc12.O=CO [Example 141, 4-{[6-fluoro-8-(methylamino)-4-{[2-(methylamino)ethyl]amino}-2-oxo-1,2-dihydroquinoline-3-carobnyl]amino}benzoic acid-formate] | – | > 16 | 8.68 | – |
| CCc1cc(C(=O)NCCN2CCOCC2)ccc1NC(=O)c1cc2cc(F)cc(NC)c2[nH]c1=O [Example 94, N-(2-ethyl-4-{[2-(morpholine-4-yl)ethyl]carbamoyl}phenyl)-6-fluoro-8-(methylamino)-2-oxo-1,2-dihydroquinoline-3-carboxamide] | 6.88 | > 2 | – | – |
| CNc1cc(F)cc2cc(C(=O)Nc3ccc(C(=O)O)cc3/C=C/CCN(C)C)c(=O)[nH]c12.Cl [Example 125, 3-[(1E)-4-(dimethylamino)but-1-en-1-yl]-4-{[6-fluoro-8-(methylamino)-2-oxo-1,2-dihydroquinoline-3-carbonyl]amino}benzoic acid-hydrochloride] | – | > 32 | 7.61 | – |
| CNc1cc(F)cc2cc(C(=O)Nc3cnc(C(=O)NCCN4CCCCC4)nc3)c(=O)[nH]c12.O=CO [Example 90, 6-fluoro-8-(methylamino)-2-oxo-N-(2-{[2-(piperidine-1-yl)ethyl]carbamoyl}pyrimidine-5-yl)-1,2-dihydroquinoline-3-carboxamide-formate] | – | > 16 | 8.61 | – |
| CNc1cc(F)cc2cc(C(=O)Nc3ccc(C(=O)O)cc3CCCCO)c(=O)[nH]c12 [Example 120, 4-[[6-Fluoro-8-(methylamino)-2-oxo-1,2-dihydroquinoline-3-carbonyl]amino]-3-(4-hydroxybutyl)benzoic Acid] | 7.49 | > 32 | – | – |
| CNCCc1c(C(=O)Nc2ccc(C(=O)O)cc2)c(=O)[nH]c2c(NC)cc(F)cc12.O=C(O)C(F)(F)F [Example 130, 4-([6-Fluoro-8-(methylamino)-4-[2-(methylamino)ethyl]-2-oxo-1,2-dihydroquinoline-3-carbonyl]amino)benzoic acid-trifluoroacetate] | – | > 8 | 6.96 | – |
| CNc1cccc2cc(C(=O)NCCc3ccc(C(=O)O)cc3)c(=O)[nH]c12 [Example 167, 4-(2-{[8-(methylamino)-2-oxo-1,2-dihydroquinoline-3-carbonyl]amino}ethyl)benzoic acid] | 6.87 | > 32 | – | – |
| CNc1cc(F)cc2cc(C(=O)Nc3ccc(C(=O)NCCN4CCOCC4)cc3CN(C)C3CCN(C)CC3)c(=O)[nH]c12 [Example 84, 6-fluoro-8-(methylamino)-N-(2-{[methyl(1-methylpiperidine-4-yl)amino]methyl}-4-{[2-(morpholine-4-yl)ethyl]carbamoyl}phenyl)-2-oxo-1,2-dihydroquinoline-3-carboxamide] | 7.94 | > 32 | – | – |
| CNc1cc(F)cc2cc(C(=O)Nc3ccc(CO)cc3CN(CCO)C3CCCCC3)c(=O)[nH]c12 [Example 124, N-[2-{[cyclohexyl(2-hydroxyethyl)amino]methyl}-4-(hydroxymethyl)phenyl]-6-fluoro-8-(methylamino)-2-oxo-1,2-dihydroquinoline-3-carboxamide] | 8.80 | – | – | – |
| CNc1cc(F)cc2c(NC[C@H]3C[C@H](N)C3)c(C(=O)Nc3ccc(C(=O)O)cc3)c(=O)[nH]c12.O=CO [Example 136, 4-{[4-{[(trans-3-aminocyclobutyl)methyl]amino}-6-fluoro-8-(methylamino)-2-oxo-1,2-dihydroquinoline-3-carbonyl]amino}benzoic acid-formate] | – | > 32 | 8.89 | – |
| CNc1cc(F)cc2cc(CNc3ccc(C(=O)O)cc3CN(C)C3CCCCC3)c(=O)[nH]c12 [Example 128, 3-[[Cyclohexyl(methyl)amino]methyl]-4-([[6-fluoro-8-(methylamino)-2-oxo-1,2-dihydroquinolin-3-yl]methyl]amino)benzoic Acid] | 6.47 | > 16 | – | – |
| CNc1cc(F)cc2cc(C(=O)Nc3ccn(C)n3)c(=O)[nH]c12 [Example 88, 6-fluoro-8-(methylamino)-N-(1-methyl-1H-pyrazole-3-yl)-2-oxo-1,2-dihydroquinoline-3-carboxamide] | – | – | – | 41 |
| CNc1cc(F)cc2cc(C(=O)Nc3ccc(C(=O)O)cc3CN(C)C3CC3)c(=O)[nH]c12 [Example 97, 3-{[cyclopropyl (methyl)amino]methyl}-4-{[6-fluoro-8-(methylamino)-2-oxo-1,2-dihydroquinoline-3-carbonyl]amino} benzoic acid] | – | > 8 | 9.22 | – |
| CCOC(=O)c1ccc(NC(=O)c2c(O)c3cc(F)cc(NC)c3[nH]c2=O)cc1 [Example 127, Ethyl 4-[[6-fluoro-4-hydroxy-8-(methylamino)-2-oxo-1,2-dihydroquinoline-3-carbonyl]amino]benzoate] | 6.67 | > 16 | – | – |
| CNc1cc(F)cc2cc(C(=O)Nc3nccn3C)c(=O)[nH]c12 [Example 87, 6-fluoro-8-(methylamino)-N-(1-methyl-1H-imidazole-2-yl)-2-oxo-1,2-dihydroquinoline-3-carboxamide] | 5.98 | – | – | – |
| CCCCCN(CCCCC)Cc1cc(C(=O)O)ccc1NC(=O)c1cc2cc(F)cc(NC)c2[nH]c1=O [Example 101, 3-[(dipentylamino)methyl]-4-{[6-fluoro-8-(methylamino)-2-oxo-1,2-dihydroquinoline-3-carbonyl]amino} benzoic acid] | 9.10 | – | – | – |
| CNc1cc(F)cc2cc(C(=O)Nc3ccc(C(=O)O)cc3CCC3CCCCC3)c(=O)[nH]c12 [Example 102, 3-(2-cyclohexylethyl)-4-{[6-fluoro-8-(methylamino)-2-oxo-1,2-dihydroquinoline-3-carbonyl]amino} benzoic acid] | – | – | 6.64 | – |
| CNc1cc(F)cc2cc(C(=O)N(C)c3cncnc3)c(=O)[nH]c12 [Example 61, 6-fluoro-N-methyl-8-(methylamino)-2-oxo-N-(pyrimidine-5-yl)-1,2-dihydroquinoline-3-carboxamide] | 6.48 | – | – | – |
| CNc1cccc2cc(C(=O)Nc3ccc(C(=O)NC(CO)CO)cc3)c(=O)[nH]c12 [Example 38, N-{4-[(1,3-dihydroxypropane-2-yl)carbamoyl]phenyl}-8-(methylamino)-2-oxo-1,2-dihydroquinoline-3-carboxamide] | 5.33 | – | – | – |
